# According to ChEMBL document CHEMBL1201862, “PubChem BioAssay data set” (2004):
# Values joined by “and” are separate entries in the source; they are usually repeats but may differ in a detail not shown here. Identical values can stand only once. Active and inactive are the calls of the source.
# Experiments:
# [1] = biological target: Metabotropic glutamate receptor 7 (Homo sapiens, UniProt Q14831); assay: mGlu7 positive allosteric modulators, dose response, cell-based, calcium mobilization, Galpha15 (AID 743384); type: functional
# [2] = biological target: T1, Polyadenylate-binding protein 1 (Homo sapiens, UniProt P11940); assay: PABP1 MLLE–PAM2 interaction inhibitors, dose response, miRNA deadenylation inhibitor project, biochemical, fluorescence polarization, Cy5-PAM2 peptide, secondary (AID 602260); type: functional; details: read-out: IC50_Mean
# [3] = biological target: T1, Polyadenylate-binding protein 1; assay: PABP1 MLLE–PAM2 binding inhibitor potency, dose response, biochemical, fluorescence polarization, FITC-PAM2 peptide (AID 602259); type: functional; details: read-out: IC50_Mean
# cells = type: functional, cell-based; details: INS-1E
# [4] = Dose-response inhibition of insulin secretion in a rat insulinoma line at 5 mM glucose (AID 1117331); type: functional, cell-based; details: INS-1E
# [5] = HIV Env cell-cell fusion inhibitors, dose response, HIV entry, plate reader, dry powder (AID 687023); type: functional, cell-based
# [6] = off-target signal loss in HeLa-CEM21 co-culture – HeLa F-luc CTL cells, cherry-picked, counter-screen for HIV-1 Env fusion inhibitor project, dose response (AID 652040); type: functional, cell-based;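 further: potency for signal decrease marking cytotoxic or nonspecific inhibition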
# [7] = inhibitors of clade B AD8 Env fusion, dose response, cell-based, cherry-pick (AID 652062); type: functional;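 further: luciferase signal from cell-cell fusion driven by HIV-1 clade B AD8 Env; potency is for inhibitors of fusion seen as a drop in luminescence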
# [8] = ZM109 Env clade C HIV-1 fusion inhibitors, dose response, HeLa effector, CEM target cells, luciferase, cherry-pick (AID 652058); type: functional, cell-based
# [9] = CEM21 cell cytotoxicity, dose response, cytotoxicity control, plate reader, dry powder (AID 687026); type: functional, cell-based
# [10] = inhibitors of HIV Env-driven cell fusion, dose response, cherry-pick (AID 652057); type: functional, cell-based
# Transthyretin = Transthyretin (Homo sapiens, UniProt P02766); assay: Luminescence-based cell-based high throughput dose response assay to identify activators of Transthyretin (TTR) transcription.; type: functional
# [11] = Glucagon-like peptide 1 release potency, NCI-H716 cell line, dose-response, half-maximal inhibitory concentration (AID 1117344); type: functional, cell-based
# [12] = half-maximal inhibitory concentration for glucagon-like peptide-1 release, STC-1 cell line, dose-response (AID 1117345); type: functional, cell-based
# [13] = A2780 ovarian cancer cell cytotoxicity, dose response, cytotoxicity control, plate reader, dry powder samples (AID 743046); type: functional, cell-based
# [14] = P. falciparum Dd2 growth inhibitors, dose response, SYBR Green, cherry-picked samples (AID 1159567); type: functional, cell-based
# Paired box protein Pax-8 = Paired box protein Pax-8 (Homo sapiens, UniProt Q06710); assay: inhibitors of PAX8-driven TPO luciferase reporter, dose response, RMG-I cells, cherry-pick (AID 687027); type: functional, cell-based;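 further: luciferase reporter driven by Pax8 target thyroperoxidase promoter measured by SteadyGlo luminescence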
# [15] = HepG2 cell cytotoxicity, dose response, cytotoxicity control, cherry-picked samples (AID 1159577); type: functional, cell-based
# [16] = IOSE-T80 ovarian epithelial cell cytotoxicity, dose response, cytotoxicity control for PAX8 inhibitor project, plate reader, dry powder samples (AID 743045); type: functional, cell-based
# [17] = NIH:OVCAR-3 ovarian cancer cell cytotoxicity, dose response, PAX8 inhibitor project, plate reader, dry powder samples (AID 743044); type: functional, cell-based
# [18] = cytotoxicity in OVCAR8 ovarian cancer cells, dose response, PAX8 project, cell-based, plate reader, dry powder samples (AID 743197); type: functional; details: OVCAR-8
# [19] = IGROV1 ovarian cancer cell cytotoxicity, dose response, PAX8 inhibitor project, plate reader, dry powder samples (AID 743043); type: functional, cell-based; details: IGROV-1
# Caspase-3 = biological target: T2, Caspase-3 (Homo sapiens, UniProt P42574); type: functional;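 further: Dose-response selectivity test against caspase-3 for candidate inhibitors of sentrin-specific proteases (SENPs)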
# T2 sequence (P42574 whole entry): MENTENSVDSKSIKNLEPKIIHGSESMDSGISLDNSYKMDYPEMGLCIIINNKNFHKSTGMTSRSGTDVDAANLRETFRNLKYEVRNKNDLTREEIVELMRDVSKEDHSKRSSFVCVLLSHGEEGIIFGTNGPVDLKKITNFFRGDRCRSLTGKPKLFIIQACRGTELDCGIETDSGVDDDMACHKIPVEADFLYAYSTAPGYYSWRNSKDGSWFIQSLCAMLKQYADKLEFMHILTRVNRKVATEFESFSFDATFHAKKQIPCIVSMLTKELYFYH
# Caspase-7 = Caspase-7 (Homo sapiens, UniProt P55210); assay: human caspase-7 inhibitors, dose response, selectivity assay for caspase-6 inhibitor project, biochemical, DEVD-R110 fluorescence, cherry-pick (AID 743295)
# Caspase-9 = Caspase-9 (Homo sapiens, UniProt P55211); assay: caspase-9 enzyme inhibition, dose response, selectivity assay for caspase-6 inhibitor project, biochemical, fluorescence, plate reader, cherry-picked samples (AID 743293)
# [20] = biological target: T3, Sentrin-specific protease 7 (Homo sapiens, UniProt Q9BQF6); type: functional;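 further: Luminescence-based dose-response confirmation of ultra-high-throughput screening hits, measuring inhibition of SENP7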
# T3 sequence (Q9BQF6 whole entry): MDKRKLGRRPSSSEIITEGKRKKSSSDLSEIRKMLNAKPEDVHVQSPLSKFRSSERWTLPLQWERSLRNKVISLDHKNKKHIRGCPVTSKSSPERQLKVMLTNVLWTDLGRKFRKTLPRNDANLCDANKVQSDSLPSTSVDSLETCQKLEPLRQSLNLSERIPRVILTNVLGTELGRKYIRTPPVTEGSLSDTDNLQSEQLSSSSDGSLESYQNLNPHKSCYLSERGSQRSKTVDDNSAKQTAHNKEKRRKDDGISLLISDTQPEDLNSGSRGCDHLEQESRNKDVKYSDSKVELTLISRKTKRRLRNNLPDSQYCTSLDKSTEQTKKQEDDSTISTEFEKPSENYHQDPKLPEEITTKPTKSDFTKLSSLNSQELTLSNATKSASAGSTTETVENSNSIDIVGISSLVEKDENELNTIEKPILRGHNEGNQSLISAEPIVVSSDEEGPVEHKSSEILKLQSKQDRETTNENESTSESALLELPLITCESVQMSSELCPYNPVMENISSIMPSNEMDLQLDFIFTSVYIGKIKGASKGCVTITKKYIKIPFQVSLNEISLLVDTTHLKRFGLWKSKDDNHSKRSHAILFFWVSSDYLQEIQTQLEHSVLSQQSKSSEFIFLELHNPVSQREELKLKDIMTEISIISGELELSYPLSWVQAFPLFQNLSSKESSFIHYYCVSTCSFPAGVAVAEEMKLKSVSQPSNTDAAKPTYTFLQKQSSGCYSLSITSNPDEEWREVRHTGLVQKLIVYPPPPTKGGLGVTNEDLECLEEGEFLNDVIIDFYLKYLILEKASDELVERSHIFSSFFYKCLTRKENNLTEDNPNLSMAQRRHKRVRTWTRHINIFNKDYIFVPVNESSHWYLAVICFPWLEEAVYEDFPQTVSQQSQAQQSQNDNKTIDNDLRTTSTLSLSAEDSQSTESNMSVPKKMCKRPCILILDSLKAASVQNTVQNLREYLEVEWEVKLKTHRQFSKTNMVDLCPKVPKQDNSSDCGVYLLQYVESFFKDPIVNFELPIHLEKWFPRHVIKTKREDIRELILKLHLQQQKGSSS
# [21] = biological target: T4, Mitochondrial peptide methionine sulfoxide reductase (Bos taurus, UniProt P54149); assay: Absorbance-based biochemical high throughput dose response assay for activators of Methionine sulfoxide reductase A (MsrA).; type: functional
# T4 sequence (P54149 whole entry): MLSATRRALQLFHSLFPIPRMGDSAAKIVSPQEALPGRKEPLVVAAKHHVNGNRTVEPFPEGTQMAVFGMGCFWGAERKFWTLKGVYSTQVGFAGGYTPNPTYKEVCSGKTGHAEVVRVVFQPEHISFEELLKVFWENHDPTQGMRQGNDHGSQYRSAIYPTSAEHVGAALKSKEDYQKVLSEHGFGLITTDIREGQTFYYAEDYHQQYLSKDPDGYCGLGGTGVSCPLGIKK
# Caspase-6 = biological target: T5, Caspase-6 (Homo sapiens, UniProt P55212); assay: human caspase-6 inhibitors, dose response, biochemical, VEID-R110 fluorescence, cherry-pick (AID 720632)
# T5 sequence (P55212 whole entry): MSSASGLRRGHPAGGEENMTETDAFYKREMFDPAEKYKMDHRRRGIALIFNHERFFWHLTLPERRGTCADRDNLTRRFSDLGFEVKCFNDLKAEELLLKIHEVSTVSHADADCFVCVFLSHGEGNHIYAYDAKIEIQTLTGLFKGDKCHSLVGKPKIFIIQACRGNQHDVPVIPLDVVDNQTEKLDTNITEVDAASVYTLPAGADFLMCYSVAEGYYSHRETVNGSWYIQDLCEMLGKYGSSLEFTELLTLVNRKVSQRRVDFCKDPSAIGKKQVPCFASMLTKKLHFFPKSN
# [22] = biological target: T6, Sentrin-specific protease 6 (Homo sapiens, UniProt Q9GZR1); type: functional;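 further: Luminescence-based dose-response confirmatory assay of SENP6 inhibition, following up an ultra-high-throughput screen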
# T6 sequence (Q9GZR1 whole entry): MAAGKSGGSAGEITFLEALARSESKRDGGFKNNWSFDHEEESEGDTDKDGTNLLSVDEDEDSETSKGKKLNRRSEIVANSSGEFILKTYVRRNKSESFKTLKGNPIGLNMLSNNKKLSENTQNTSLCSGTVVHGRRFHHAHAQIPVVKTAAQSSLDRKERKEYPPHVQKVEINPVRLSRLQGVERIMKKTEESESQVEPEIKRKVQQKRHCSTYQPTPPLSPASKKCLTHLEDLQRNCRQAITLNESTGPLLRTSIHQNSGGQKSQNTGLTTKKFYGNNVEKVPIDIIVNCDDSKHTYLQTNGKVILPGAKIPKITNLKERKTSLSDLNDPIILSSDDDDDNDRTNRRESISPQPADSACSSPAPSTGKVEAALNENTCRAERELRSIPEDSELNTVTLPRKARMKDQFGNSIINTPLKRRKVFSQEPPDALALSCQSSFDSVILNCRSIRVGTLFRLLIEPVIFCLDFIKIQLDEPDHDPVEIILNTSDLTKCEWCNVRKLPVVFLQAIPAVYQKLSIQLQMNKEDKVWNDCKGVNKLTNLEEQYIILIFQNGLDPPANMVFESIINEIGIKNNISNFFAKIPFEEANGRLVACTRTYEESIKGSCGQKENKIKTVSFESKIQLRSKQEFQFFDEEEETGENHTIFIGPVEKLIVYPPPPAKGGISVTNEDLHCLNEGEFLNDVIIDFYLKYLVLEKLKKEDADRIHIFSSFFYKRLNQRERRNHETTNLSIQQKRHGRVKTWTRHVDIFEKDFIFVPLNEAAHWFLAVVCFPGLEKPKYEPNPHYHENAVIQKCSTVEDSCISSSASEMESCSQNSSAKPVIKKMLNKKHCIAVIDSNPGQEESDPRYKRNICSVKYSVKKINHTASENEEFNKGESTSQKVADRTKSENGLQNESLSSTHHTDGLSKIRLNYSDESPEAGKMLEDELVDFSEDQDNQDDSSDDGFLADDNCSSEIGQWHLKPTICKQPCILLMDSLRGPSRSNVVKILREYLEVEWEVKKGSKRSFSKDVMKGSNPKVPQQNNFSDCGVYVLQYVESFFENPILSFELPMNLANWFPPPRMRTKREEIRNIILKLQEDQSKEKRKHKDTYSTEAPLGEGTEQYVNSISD
# [23] = biological target: T7, Sentrin-specific protease 8 (Homo sapiens, UniProt Q96LD8); type: functional;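 further: luminescence read-out of SENP8 inhibition, dose-response confirmation following an ultra-high-throughput screen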
# T7 sequence (Q96LD8 whole entry): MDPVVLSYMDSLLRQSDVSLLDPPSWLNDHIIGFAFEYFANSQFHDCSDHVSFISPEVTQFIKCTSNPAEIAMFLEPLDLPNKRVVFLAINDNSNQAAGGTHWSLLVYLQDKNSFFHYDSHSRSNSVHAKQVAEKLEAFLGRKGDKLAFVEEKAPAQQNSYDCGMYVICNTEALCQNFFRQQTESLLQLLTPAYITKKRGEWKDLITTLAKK
# Caspase-8 = Caspase-8 (Homo sapiens, UniProt Q14790); assay: caspase-8 inhibition counter-screen, dose response, selectivity assay for caspase-6 inhibitor project, biochemical, Z-IETD-R110 fluorescence, cherry-picked samples (AID 743294)
# [24] = biological target: NAD-dependent protein deacylase sirtuin-5, mitochondrial (Homo sapiens, UniProt Q9NXA8); assay: SIRT5 desuccinylase inhibitors, dose response, biochemical, fluorescence imaging, cherry-pick, set 5 (AID 720591);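 further: desuccinylation of succinyl peptide AMC substrate read as fluorescence after trypsin release; potency of inhibitors that lower fluorescence and may act on trypsin instead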
# NAD-dependent protein deacylase sirtuin-5, mitochondrial, sequence (Q9NXA8 whole entry): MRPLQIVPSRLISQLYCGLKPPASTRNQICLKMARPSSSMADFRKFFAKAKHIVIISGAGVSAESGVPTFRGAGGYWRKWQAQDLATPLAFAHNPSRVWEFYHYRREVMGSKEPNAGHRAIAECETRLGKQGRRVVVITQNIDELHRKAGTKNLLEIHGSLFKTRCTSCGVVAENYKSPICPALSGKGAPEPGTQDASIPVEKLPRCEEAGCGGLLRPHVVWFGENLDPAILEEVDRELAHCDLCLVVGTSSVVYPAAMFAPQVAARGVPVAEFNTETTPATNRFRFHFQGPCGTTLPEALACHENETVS
# T1 sequence (P11940 whole entry): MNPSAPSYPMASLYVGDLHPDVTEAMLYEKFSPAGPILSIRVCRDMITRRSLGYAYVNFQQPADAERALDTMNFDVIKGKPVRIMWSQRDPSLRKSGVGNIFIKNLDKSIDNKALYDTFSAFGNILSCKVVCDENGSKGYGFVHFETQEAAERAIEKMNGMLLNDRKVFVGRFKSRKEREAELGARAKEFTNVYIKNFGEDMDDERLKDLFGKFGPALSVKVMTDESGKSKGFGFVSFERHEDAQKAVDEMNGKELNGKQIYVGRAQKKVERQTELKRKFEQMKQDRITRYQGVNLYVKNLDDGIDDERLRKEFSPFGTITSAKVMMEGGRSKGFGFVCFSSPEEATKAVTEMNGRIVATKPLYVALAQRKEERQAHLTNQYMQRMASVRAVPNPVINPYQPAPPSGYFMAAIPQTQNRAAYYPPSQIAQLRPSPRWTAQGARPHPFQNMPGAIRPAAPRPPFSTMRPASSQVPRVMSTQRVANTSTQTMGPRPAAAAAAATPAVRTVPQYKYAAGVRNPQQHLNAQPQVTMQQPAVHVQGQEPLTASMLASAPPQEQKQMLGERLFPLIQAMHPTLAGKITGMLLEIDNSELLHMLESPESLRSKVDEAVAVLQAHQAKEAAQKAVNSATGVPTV
# Paired box protein Pax-8, sequence (Q06710 whole entry): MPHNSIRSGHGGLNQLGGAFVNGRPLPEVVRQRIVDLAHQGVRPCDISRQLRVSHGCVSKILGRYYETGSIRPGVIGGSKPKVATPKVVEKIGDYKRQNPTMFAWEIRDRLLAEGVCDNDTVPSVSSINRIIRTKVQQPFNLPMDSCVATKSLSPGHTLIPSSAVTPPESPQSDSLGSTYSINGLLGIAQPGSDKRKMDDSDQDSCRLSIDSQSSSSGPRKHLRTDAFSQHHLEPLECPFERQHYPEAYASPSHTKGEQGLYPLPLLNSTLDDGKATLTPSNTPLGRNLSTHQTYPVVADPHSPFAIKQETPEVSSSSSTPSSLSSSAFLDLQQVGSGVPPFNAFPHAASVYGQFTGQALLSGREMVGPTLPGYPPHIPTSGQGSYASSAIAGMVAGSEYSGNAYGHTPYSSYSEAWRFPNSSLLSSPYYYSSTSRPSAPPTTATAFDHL
# Caspase-9, sequence (P55211 1-315 limits assumed): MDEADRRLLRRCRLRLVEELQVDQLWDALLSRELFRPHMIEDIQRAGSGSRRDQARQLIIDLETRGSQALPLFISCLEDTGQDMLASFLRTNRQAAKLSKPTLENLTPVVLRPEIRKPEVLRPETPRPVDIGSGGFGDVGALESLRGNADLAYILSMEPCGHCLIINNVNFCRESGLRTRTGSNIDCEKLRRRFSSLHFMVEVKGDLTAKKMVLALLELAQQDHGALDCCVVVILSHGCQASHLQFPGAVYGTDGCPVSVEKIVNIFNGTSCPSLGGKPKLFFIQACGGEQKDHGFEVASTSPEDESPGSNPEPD
# Caspase-9, sequence (P55211 331-416 limits assumed): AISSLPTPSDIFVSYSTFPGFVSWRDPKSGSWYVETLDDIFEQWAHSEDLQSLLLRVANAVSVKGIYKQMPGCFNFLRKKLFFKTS
# Caspase-8, sequence (Q14790 217-374 limits assumed): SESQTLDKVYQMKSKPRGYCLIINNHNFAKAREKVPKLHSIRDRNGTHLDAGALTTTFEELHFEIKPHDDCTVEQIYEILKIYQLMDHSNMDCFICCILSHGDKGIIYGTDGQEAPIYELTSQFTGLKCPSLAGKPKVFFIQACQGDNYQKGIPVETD
# Caspase-8, sequence (Q14790 385-479 limits assumed): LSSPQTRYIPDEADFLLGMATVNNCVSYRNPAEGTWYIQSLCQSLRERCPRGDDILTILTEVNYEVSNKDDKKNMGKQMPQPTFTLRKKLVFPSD
# Caspase-7, sequence (P55210 24-198 limits assumed): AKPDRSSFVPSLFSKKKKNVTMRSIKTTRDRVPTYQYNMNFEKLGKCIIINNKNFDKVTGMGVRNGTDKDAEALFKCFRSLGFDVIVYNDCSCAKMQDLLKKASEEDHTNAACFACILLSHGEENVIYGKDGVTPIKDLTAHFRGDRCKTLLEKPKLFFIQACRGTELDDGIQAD
# Caspase-7, sequence (P55210 207-303 limits assumed): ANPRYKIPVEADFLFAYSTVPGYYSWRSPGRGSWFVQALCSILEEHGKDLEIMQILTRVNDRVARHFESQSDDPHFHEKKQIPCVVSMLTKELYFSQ
# Metabotropic glutamate receptor 7, sequence (Q14831 whole entry): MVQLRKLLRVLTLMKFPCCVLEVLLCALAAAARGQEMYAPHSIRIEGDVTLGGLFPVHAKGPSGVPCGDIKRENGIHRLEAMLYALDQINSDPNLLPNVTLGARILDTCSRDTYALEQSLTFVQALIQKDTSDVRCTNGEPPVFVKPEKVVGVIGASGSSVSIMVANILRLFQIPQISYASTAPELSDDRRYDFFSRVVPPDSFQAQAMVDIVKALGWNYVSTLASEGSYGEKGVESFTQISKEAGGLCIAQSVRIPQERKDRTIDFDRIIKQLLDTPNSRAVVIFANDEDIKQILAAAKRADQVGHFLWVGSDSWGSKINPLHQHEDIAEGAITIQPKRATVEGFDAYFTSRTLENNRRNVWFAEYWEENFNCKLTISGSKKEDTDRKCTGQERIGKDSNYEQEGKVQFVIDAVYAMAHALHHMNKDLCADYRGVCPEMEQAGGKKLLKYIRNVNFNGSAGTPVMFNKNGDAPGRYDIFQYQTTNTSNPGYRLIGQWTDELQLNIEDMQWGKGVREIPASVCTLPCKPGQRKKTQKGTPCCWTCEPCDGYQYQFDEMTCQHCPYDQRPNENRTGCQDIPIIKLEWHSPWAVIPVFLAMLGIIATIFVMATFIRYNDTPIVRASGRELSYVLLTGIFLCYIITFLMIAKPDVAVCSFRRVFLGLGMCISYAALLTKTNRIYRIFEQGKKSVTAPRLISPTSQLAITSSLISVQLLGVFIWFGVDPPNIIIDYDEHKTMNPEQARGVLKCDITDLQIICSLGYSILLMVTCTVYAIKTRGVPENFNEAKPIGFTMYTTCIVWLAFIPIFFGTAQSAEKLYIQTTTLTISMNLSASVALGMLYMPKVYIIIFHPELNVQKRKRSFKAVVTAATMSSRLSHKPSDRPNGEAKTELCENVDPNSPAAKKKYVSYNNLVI
compound,measurement,setting,value
CC(=O)Nc1ccc(SCC(=O)c2cc(C)n(-c3ccccc3F)c2C)cc1,EC50,[1],2.4 µM (active)
same,IC50,[2],> 66 µM (inactive)
same,IC50,[3],> 66 µM (inactive)
Nc1c2c(nc3ccccc13)CCCC2 [TACRINE],IC50,cells,> 33.3 µM (inactive)
same,IC50,[4],17.6 µM (inactive)
Cc1ccc2c(CN3CCN(S(=O)(=O)c4ccc5c(c4)OCCO5)CC3)cc(=O)oc2c1C,AC50,[5],3.95 µM (active) and 5.68 µM (active) and 3.52 µM (active)
same,AC50,[6],> 70 µM (inactive)
same,AC50,[7],4.06 µM (active)
same,AC50,[8],0.424 µM (active)
same,AC50,[9],> 70 µM (inactive)
same,AC50,[10],4.58 µM (active)
CCn1ncc(/C=N\NC(=O)c2csc3ccccc23)c1C,EC50,Transthyretin,> 167 µM (inactive)
Nc1cc(C(F)(F)F)ccc1S,IC50,[11],15.3 µM (inactive)
same,IC50,[12],1.16 µM (active)
O=C(Nc1cccc(F)c1)N1CCCCN2[C@@H](CO)[C@H](c3ccc(C#Cc4ccccc4)cc3)[C@@H]2C1,AC50,[13],19.8 µM (active)
same,AC50,[14],< 0.3 µM (active)
same,AC50,Paired box protein Pax-8,9.89 µM (active)
same,AC50,[15],7.6 µM (active)
same,AC50,[16],63.4 µM (active)
same,AC50,[17],17.2 µM (active)
same,AC50,[18],65.6 µM (active)
same,AC50,[19],29.4 µM (active)
O=C(COC(=O)c1ccc([N+](=O)[O-])s1)Nc1ccccc1,IC50,Caspase-3,8.76 µM (active)
same,AC50,Caspase-7,17.4 µM (active)
same,AC50,Caspase-9,25.5 µM (active)
same,IC50,[20],6.5 µM (active)
same,EC50,[21],57.5 µM (inactive)
same,AC50,Caspase-6,2.49 µM (active)
same,IC50,[22],4.39 µM (active)
same,IC50,[23],4.04 µM (active)
same,AC50,Caspase-8,25.5 µM (active)
CCCCC(=O)Nc1ccc2c(c1)nc(CCNC(=O)c1ccco1)n2C,AC50,[24],> 30 µM (inactive)
